Results reported in US12022829B2, “Water-dispersible fine particle” (TOYOBO CO., LTD., priority 2018, dated 2024).

Key:
Format in all cases: cell-based
P. fluorescens biofilm [1] = assay: Anti-biofilm coat test using fine particle suspension (Test example 2); conditions: water washing, cultivation 30° C. 48 hours, CV staining
Procedure: (§1) A test piece was taken out after the cultivation and washed using normal saline, and a biofilm amount adhered on the test piece surface was measured. The biofilm amount was measured by CV (crystal violet) staining method. Specifically, a test piece was immersed in 0.1 wt % CV aqueous solution for 30 minutes, an excessive CV was washed out using water, an extraction from the stained region was carried out using 98% ethanol, and an absorbance of 500 nm was measured.
P. fluorescens, which is a gram-negative bacillus having high productivity of a biofilm, was used for evaluating an anti-biofilm property. A dried standard product of P. fluorescens was obtained as NBRC No. 14160 and recovered by the following method. DAIGO growth medium 802 (8.4 g) manufactured by Wako Pure Chemical Corporation and 300 mL of purified water were weighed and added into a beaker, and the mixture was stirred at room temperature for about 30 minutes for dispersion. A recovering liquid was sterilized by an autoclave, 0.2 mL of the recovering liquid was taken out using a micropipette and added into an ample of a dried standard product of P. fluorescens, and the mixture was stirred. Separately, 25 mL of SCD broth (Soybean-Casein Digest Broth) manufactured by Wako Pure Chemical Corporation was added in a flask, and […] of the above P. fluorescens suspension was subsequently added thereto. The bacterium was cultivated at 30° C. and a velocity of 150 rpm in a constant temperature incubator shaker for 24 hours for cultivation. After the cultivation, the bacterium was added in 80% glycerol, and the bacterium liquid was preserved at −80° C.
A fine particle suspension of ε-PL was prepared by using the GPE-ized polycarboxylic acid of Production examples 1 to 5 as a test sample liquid for an anti-biofilm coat. A fine particle suspension was prepared by mixing the both of the aqueous solutions of the GPE-ized polycarboxylic acid and ε-PL so that a concentration of the GPE-ized polycarboxylic acid in the fine particle suspension became 0.5 wt % and a concentration of ε-PL became 0.045 wt %. For comparison, a simple ε-PL aqueous solution, an IPMP (4-isopropyl-3-methylphenol, manufactured by Wako Pure Chemical Corporation) ethanol solution and a silver nano particle aqueous suspension manufactured by JAPAN ION Corporation having concentrations of 0.045 wt % were respectively produced. […] The test piece coated with each drug was stirred at 25° C. and 350 rpm for 1 minute for washing with water as a water section environment. The test piece after the water washing was immersed in a broth containing the bacterium liquid prepared in Test example 1, and a biofilm was formed by a cultivation at 30° C. for 48 hours. A concentration was adjusted to 10 cfu/mL by diluting the P. fluorescens liquid with SCD broth. The test piece was taken cut after the cultivation, washed using normal saline, and an amount of a biofilm adhered on the surface of the test piece was measured. A biofilm inhibition rate was calculated by the following formula: Biofilm inhibition rate (%)=(measurement value of untreated test piece−measurement value of test piece coated with test liquid)/(measurement value of untreated test piece)×100

P. fluorescens biofilm [2] = assay: Biofilm removing effect test after immersion in drug (Test example 3); conditions: 1-week biofilm in 48-well microplate, CV staining
Procedure: as §1
SCD broth containing the bacterial liquid of P. fluorescens having a concentration of 10^6 cfu/mL prepared in Test example 1 was added to 48-well microplate manufactured by Sumitomo Bakelite Co., Ltd. for cultivation at 30° C. for 1 week to form a biofilm in the plate. The bacterial liquid as supernatant was removed, and the residue was rinsed using a sterilized normal saline and dried. The test liquid was prepared by a similar method to Test example 2. Specifically, a fine particle suspension was prepared so that a concentration of GPE-ized polycarboxylic acid became 0.5 wt % and a concentration of ε-PL became 0.04 wt % in the suspension. In a microplate in which a biofilm was formed, 1 mL of each test liquid was added to immerse the biofilm for 1 minute, 10 minutes, 30 minutes or 60 minutes to evaluate a biofilm removing effect at every immersion (contact) time. The test drug was removed after a lapse of the immersion (contact) time, and the residue was immediately washed using 1 mL of normal saline two times and dried to measure a biofilm amount by CV staining method described in Test example 2. A biofilm removing rate was calculated by the following formula: Biofilm removing rate (%)=(measurement value of untreatment−measurement value after immersion in test liquid)/(measurement value of untreatment)×100

P. fluorescens biofilm [3] = assay: Biofilm inhibition test after immersion in (contact with) drug (Test example 4); conditions: then re-cultivation in SCD broth 30° C. 24 hours, CV staining
Procedure: as §1
In a microplate of Test example 3 in which a biofilm was formed, 1 mL of each test drug was added for an immersion for 1 minute, 10 minutes, 30 minutes or 60 minutes. The test drug was removed after the contact time, and the residue was washed using 1 mL of normal saline two times. In the microplate, 1 mL of SCD broth was added for a cultivation at 30° C. for 24 hours to form a biofilm again and to evaluate a re-inhibition property of a biofilm. An amount of a biofilm was measured after the cultivation. An amount of a biofilm was measured by CV staining method described in Test example 2. A biofilm inhibition rate was calculated by the following formula: Biofilm inhibition rate (6)=(measurement value of untreatment−measurement value after immersion in test liquid)/(measurement value of untreatment)×100

[4] = tested on: P. fluorescens in biofilm; assay: Biofilm bactericidal property test (Test example 5); conditions: untreated 40000 cfu/well
Procedure: A number of a viable bacterium in the biofilm was measured by adding 1 mL of normal saline to the surface material on which a biofilm was adsorbed, destroying the biofilm using a ultrasonic washing machine, collecting an elution liquid, diluting the elution liquid from 10^2 to 10^8 using normal saline, inoculating the diluted solution into petri Film™ broth manufactured by 3M, performing cultivation at 30° C. for 1 week, and counting colonies.
After the test drug was contacted with a biofilm, a bactericidal property against the bacterium in the biofilm was tested. In a microplate of Test example 3 in which a biofilm was formed, 1 mL of each test drug was added for an immersion for 1 minute, 10 minutes, 30 minutes and 60 minutes. The test drug was removed after the lapse of contact time, and the reside was immediately washed using 1 mL of normal saline two times. In the microplate, 1 mL of normal saline was added. The bacterium was eluted in the normal saline by treating the mixture for 1 minute using an ultrasound bath to destroy the biofilm. The eluate was diluted from 10^2 to 10^8 using sterilized normal saline, and inoculated to Petrifilm™ broth manufactured by 3M for a cultivation at 30° C. for 1 week. Then, the number of colonies was counted and the number of viable bacteria was measured. The number of viable bacteria was 40000 cfu/well in the untreatment case; on the one hand, it was confirmed that the bacteria number in a biofilm was reduced by an immersion in the fine particle suspension in Examples 37 to 39 as the number of viable bacteria was reduced.

[5] = adhesion amount 0.01 μg/cm^2 on polyvinyl chloride test piece
[6] = adhesion amount 0.02 μg/cm^2 on polyvinyl chloride test piece
[7] = adhesion amount 0.04 μg/cm^2 on polyvinyl chloride test piece
[8] = adhesion amount 0.08 μg/cm^2 on polyvinyl chloride test piece
[9] = adhesion amount 0.12 μg/cm^2 on polyvinyl chloride test piece

Cc1cc(O)ccc1C(C)C [compound 17, 4-isopropyl-3-methylphenol]
Biofilm inhibition rate (P. fluorescens biofilm [1]; [5]): 41%

Cc1cc(O)ccc1C(C)C [compound 18, 4-isopropyl-3-methylphenol]
Biofilm inhibition rate (P. fluorescens biofilm [1]; [6]): 48%

Cc1cc(O)ccc1C(C)C [compound 19, 4-isopropyl-3-methylphenol]
Biofilm inhibition rate (P. fluorescens biofilm [1]; [7]): 57%

Cc1cc(O)ccc1C(C)C [compound 20, 4-isopropyl-3-methylphenol]
Biofilm inhibition rate (P. fluorescens biofilm [1]; [8]): 66%

Cc1cc(O)ccc1C(C)C [compound 21, 4-isopropyl-3-methylphenol]
Biofilm inhibition rate (P. fluorescens biofilm [1]; [9]): 75%

Cc1cc(O)ccc1C(C)C [compound 24, 4-isopropyl-3-methylphenol]
Removal rate of biofilm every contact time (Test example 3) (P. fluorescens biofilm [2]; contact time 1 min): 60%
Removal rate of biofilm every contact time (Test example 3) (P. fluorescens biofilm [2]; contact time 10 min): 56%
Removal rate of biofilm every contact time (Test example 3) (P. fluorescens biofilm [2]; contact time 30 min): 61%
Removal rate of biofilm every contact time (Test example 3) (P. fluorescens biofilm [2]; contact time 60 min): 52%
Removal rate of biofilm every contact time (Test example 4) (P. fluorescens biofilm [3]; contact time 1 min): 22%
Removal rate of biofilm every contact time (Test example 4) (P. fluorescens biofilm [3]; contact time 10 min): 33%
Removal rate of biofilm every contact time (Test example 4) (P. fluorescens biofilm [3]; contact time 30 min): 37%
Removal rate of biofilm every contact time (Test example 4) (P. fluorescens biofilm [3]; contact time 60 min): 57%

Cc1cc(O)ccc1C(C)C [compound 27, 4-isopropyl-3-methylphenol]
Number of viable bacteria in biofilm every contact time ([4]; contact time 1 min): 1900 cfu/well
Number of viable bacteria in biofilm every contact time ([4]; contact time 10 min): 800 cfu/well
Number of viable bacteria in biofilm every contact time ([4]; contact time 30 min): 800 cfu/well
Number of viable bacteria in biofilm every contact time ([4]; contact time 60 min): 800 cfu/well

ε-poly-L-lysine [compound 7]
Biofilm inhibition rate (P. fluorescens biofilm [1]; [5]): 5%

ε-poly-L-lysine [compound 8]
Biofilm inhibition rate (P. fluorescens biofilm [1]; [6]): 29%

ε-poly-L-lysine [compound 9]
Biofilm inhibition rate (P. fluorescens biofilm [1]; [7]): 45%

ε-poly-L-lysine [compound 10]
Biofilm inhibition rate (P. fluorescens biofilm [1]; [8]): 52%

ε-poly-L-lysine [compound 11]
Biofilm inhibition rate (P. fluorescens biofilm [1]; [9]): 57%

ε-poly-L-lysine [compound 22]
Removal rate of biofilm every contact time (Test example 3) (P. fluorescens biofilm [2]; contact time 1 min): 87%
Removal rate of biofilm every contact time (Test example 3) (P. fluorescens biofilm [2]; contact time 10 min): 87%
Removal rate of biofilm every contact time (Test example 3) (P. fluorescens biofilm [2]; contact time 30 min): 84%
Removal rate of biofilm every contact time (Test example 3) (P. fluorescens biofilm [2]; contact time 60 min): 83%
Removal rate of biofilm every contact time (Test example 4) (P. fluorescens biofilm [3]; contact time 1 min): 22%
Removal rate of biofilm every contact time (Test example 4) (P. fluorescens biofilm [3]; contact time 10 min): 38%
Removal rate of biofilm every contact time (Test example 4) (P. fluorescens biofilm [3]; contact time 30 min): 40%
Removal rate of biofilm every contact time (Test example 4) (P. fluorescens biofilm [3]; contact time 60 min): 45%

ε-poly-L-lysine [compound 25]
Number of viable bacteria in biofilm every contact time ([4]; contact time 1 min): 1200 cfu/well
Number of viable bacteria in biofilm every contact time ([4]; contact time 10 min): 1200 cfu/well
Number of viable bacteria in biofilm every contact time ([4]; contact time 30 min): 1200 cfu/well
Number of viable bacteria in biofilm every contact time ([4]; contact time 60 min): 1200 cfu/well
